In PubChem BioAssay (NCI):
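Here, GI50 denotes the concentration required for 50% inhibition of growth. TGI marks complete inhibition of growth.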

Assays:
Experiment in all cases: NCI-60 cell line screen, 384-well format
SK-MEL-2 melanoma = test system: SK-MEL-2 melanoma
UO-31 renal = test system: UO-31 renal
KM12 colon = test system: KM12 colon
K-562 leukemia = test system: K-562 leukemia
NCI/ADR-RES ovarian = test system: NCI/ADR-RES ovarian
U251 glioblastoma = test system: U251 glioblastoma
MDA-MB-468 breast = test system: MDA-MB-468 breast
OVCAR-5 ovarian = test system: OVCAR-5 ovarian
OVCAR-3 ovarian = test system: OVCAR-3 ovarian
MCF7 breast = test system: MCF7 breast
HS 578T breast = test system: HS 578T breast
NCI-H460 NSCLC = test system: NCI-H460 NSCLC
MOLT-4 leukemia = test system: MOLT-4 leukemia
SR leukemia = test system: SR leukemia
SNB-75 CNS = test system: SNB-75 CNS
SF-539 CNS = test system: SF-539 CNS
M14 melanoma = test system: M14 melanoma
BT-549 breast = test system: BT-549 breast
HT29 colon = test system: HT29 colon
A498 renal = test system: A498 renal
HCC-2998 colon = test system: HCC-2998 colon
EKVX NSCLC = test system: EKVX NSCLC
SW-620 colon = test system: SW-620 colon
MDA-MB-231 breast = test system: MDA-MB-231 breast
NCI-H322M lung = test system: NCI-H322M lung
786-0 renal = test system: 786-0 renal
OVCAR-4 ovarian = test system: OVCAR-4 ovarian
RPMI-8226 leukemia = test system: RPMI-8226 leukemia
SF-268 CNS = test system: SF-268 CNS
CCRF-CEM leukemia = test system: CCRF-CEM leukemia
HOP-62 NSCLC = test system: HOP-62 NSCLC
HCT-116 colon = test system: HCT-116 colon
CAKI-1 renal = test system: CAKI-1 renal
MALME-3M melanoma = test system: MALME-3M melanoma
NCI-H522 lung = test system: NCI-H522 lung
SN12C renal = test system: SN12C renal
DU-145 prostate = test system: DU-145 prostate
UACC-257 melanoma = test system: UACC-257 melanoma
T-47D breast = test system: T-47D breast
HOP-92 NSCLC = test system: HOP-92 NSCLC
A549 NSCLC = test system: A549 NSCLC
NCI-H226 lung = test system: NCI-H226 lung
SK-MEL-5 melanoma = test system: SK-MEL-5 melanoma
SF-295 CNS = test system: SF-295 CNS
MDA-MB-435 melanoma = test system: MDA-MB-435 melanoma
HL-60(TB) leukemia = test system: HL-60(TB) leukemia
OVCAR-8 ovarian = test system: OVCAR-8 ovarian
TK-10 renal = test system: TK-10 renal
PC-3 prostate = test system: PC-3 prostate
IGROV1 ovarian = test system: IGROV1 ovarian
ACHN renal = test system: ACHN renal
NCI-H23 lung = test system: NCI-H23 lung
SK-OV-3 ovarian = test system: SK-OV-3 ovarian
SNB-19 CNS = test system: SNB-19 CNS
COLO 205 colon = test system: COLO 205 colon
SK-MEL-28 melanoma = test system: SK-MEL-28 melanoma
LOX IMVI melanoma = test system: LOX IMVI melanoma
HCT-15 colon = test system: HCT-15 colon
UACC-62 melanoma = test system: UACC-62 melanoma

For `CO[C@H]1C[C@@H]2CC[C@@H](C)[C@@](O)(O2)C(=O)C(=O)N2CCCC[C@H]2C(=O)O[C@H]([C@H](C)C[C@@H]2CC[C@@H](OCCO)[C@H](OC)C2)CC(=O)[C@H](C)C=C(C)[C@@H](O)[C@@H](OC)C(=O)[C@H](C)C[C@H](C)/C=C/C=C/C=C1C`, the GI50 (SK-MEL-2 melanoma) was 14.2 µM, the TGI (SK-MEL-2 melanoma) was 27.2 µM and the GI50 (UO-31 renal) was < 0.01 µM. It also gave a GI50 (KM12 colon) of 11.2 µM, a TGI (KM12 colon) of 23.3 µM and a GI50 (K-562 leukemia) of 2.04 µM. The TGI (K-562 leukemia) was 15.3 µM, the GI50 (NCI/ADR-RES ovarian) was 13.5 µM and the TGI (NCI/ADR-RES ovarian) was 28.7 µM. For the same molecule, the GI50 (U251 glioblastoma) was 5.77 µM, the TGI (U251 glioblastoma) was 21.1 µM and the GI50 (MDA-MB-468 breast) was < 0.01 µM. For the same molecule, the TGI (MDA-MB-468 breast) was 8.91 µM, the GI50 (OVCAR-5 ovarian) was 15.2 µM and the TGI (OVCAR-5 ovarian) was 29.1 µM. For the same molecule, the GI50 (OVCAR-3 ovarian) was 4.68 µM, the TGI (OVCAR-3 ovarian) was 21.8 µM and the GI50 (MCF7 breast) was < 0.0154 µM. For the same molecule, the TGI (MCF7 breast) was 12.9 µM, the TGI (HS 578T breast) was 7.24 µM and the GI50 (NCI-H460 NSCLC) was 0.377 µM. For the same molecule, the TGI (NCI-H460 NSCLC) was 18.7 µM, the GI50 (MOLT-4 leukemia) was < 0.01 µM and the TGI (MOLT-4 leukemia) was 2.24 µM. The GI50 (SR leukemia) was < 0.01 µM, the TGI (SR leukemia) was 1.3 µM and the GI50 (SNB-75 CNS) was 0.124 µM. The TGI (SNB-75 CNS) was 4.55 µM, the GI50 (SF-539 CNS) was 3.06 µM and the TGI (SF-539 CNS) was 19.7 µM. The GI50 (M14 melanoma) was 12.1 µM, the TGI (M14 melanoma) was 24.5 µM and the TGI (BT-549 breast) was 15.6 µM. For the same molecule, the GI50 (HT29 colon) was 11.5 µM, the TGI (HT29 colon) was 23.7 µM and the GI50 (A498 renal) was < 0.0276 µM. For the same molecule, the TGI (A498 renal) was 17.4 µM, the GI50 (HCC-2998 colon) was 7.55 µM and the TGI (HCC-2998 colon) was 22.9 µM. For the same molecule, the GI50 (EKVX NSCLC) was 1.79 µM, the TGI (EKVX NSCLC) was 20.4 µM and the GI50 (SW-620 colon) was 11.8 µM. It also gave a TGI (SW-620 colon) of 16.4 µM, a GI50 (MDA-MB-231 breast) of 12.5 µM and a TGI (MDA-MB-231 breast) of 25.1 µM. It also gave a GI50 (NCI-H322M lung) of 6.97 µM, a TGI (NCI-H322M lung) of 22.1 µM and a GI50 ([…]-0 renal) of 0.777 µM. For the same molecule, the TGI (786-0 renal) was 21.1 µM, the GI50 (OVCAR-4 ovarian) was 10.8 µM and the TGI (OVCAR-4 ovarian) was 24.1 µM. The GI50 (RPMI-8226 leukemia) was < 0.01 µM, the TGI (RPMI-8226 leukemia) was 1.87 µM and the GI50 (SF-268 CNS) was 12.6 µM. For the same molecule, the TGI (SF-268 CNS) was 25.3 µM, the GI50 (CCRF-CEM leukemia) was < 0.01 µM and the TGI (CCRF-CEM leukemia) was 2.84 µM. It also gave a GI50 (HOP-62 NSCLC) of 0.548 µM, a TGI (HOP-62 NSCLC) of 20.7 µM and a GI50 (HCT-116 colon) of 8.33 µM. The TGI (HCT-116 colon) was 21.9 µM, the GI50 (CAKI-1 renal) was 5.67 µM and the TGI (CAKI-1 renal) was 21.4 µM. The GI50 (MALME-3M melanoma) was < 0.01 µM, the TGI (MALME-3M melanoma) was 14.6 µM and the GI50 (NCI-H522 lung) was 9.37 µM. The TGI (NCI-H522 lung) was 22 µM, the GI50 (SN12C renal) was 11.7 µM and the TGI (SN12C renal) was 24.2 µM. The GI50 (DU-145 prostate) was 7.21 µM, the TGI (DU-145 prostate) was 23.4 µM and the GI50 (UACC-257 melanoma) was 16.5 µM. For the same molecule, the TGI (UACC-257 melanoma) was 30.1 µM, the TGI (T-47D breast) was 16.2 µM and the GI50 (HOP-92 NSCLC) was 11.2 µM. For the same molecule, the TGI (HOP-92 NSCLC) was 23.4 µM, the TGI (A549 NSCLC) was 20 µM and the GI50 (NCI-H226 lung) was 9.49 µM. The TGI (NCI-H226 lung) was 21.8 µM, the GI50 (SK-MEL-5 melanoma) was 0.414 µM and the TGI (SK-MEL-5 melanoma) was 3.78 µM. It also gave a TGI (SF-295 CNS) of 16 µM, a GI50 (MDA-MB-435 melanoma) of 16.2 µM and a TGI (MDA-MB-435 melanoma) of 29.9 µM. The GI50 (HL-60(TB) leukemia) was 2.16 µM, the TGI (HL-60(TB) leukemia) was 6.09 µM and the GI50 (OVCAR-8 ovarian) was 10.9 µM. It also gave a TGI (OVCAR-8 ovarian) of 22.8 µM, a GI50 (TK-10 renal) of 13.6 µM and a TGI (TK-10 renal) of 31 µM. The GI50 (PC-3 prostate) was 0.549 µM, the TGI (PC-3 prostate) was 17.7 µM and the GI50 (IGROV1 ovarian) was < 0.01 µM. The TGI (IGROV1 ovarian) was 11.2 µM, the GI50 (ACHN renal) was 2.93 µM and the TGI (ACHN renal) was 22.2 µM. For the same molecule, the GI50 (NCI-H23 lung) was 11.6 µM, the TGI (NCI-H23 lung) was 23.9 µM and the GI50 (SK-OV-3 ovarian) was 12.1 µM. The TGI (SK-OV-3 ovarian) was 25.4 µM, the GI50 (SNB-19 CNS) was 12.8 µM and the TGI (SNB-19 CNS) was 25.5 µM. The GI50 (COLO 205 colon) was 14.6 µM, the TGI (COLO 205 colon) was 27.7 µM and the GI50 (SK-MEL-28 melanoma) was 11.9 µM. The TGI (SK-MEL-28 melanoma) was 16.5 µM, the GI50 (LOX IMVI melanoma) was 6.02 µM and the TGI (LOX IMVI melanoma) was 20.9 µM. The GI50 (HCT-15 colon) was 1.43 µM, the TGI (HCT-15 colon) was 18.7 µM and the GI50 (UACC-62 melanoma) was 6.61 µM. It also gave a TGI (UACC-62 melanoma) of 14.9 µM.
